{
  "source": "ChEMBL document CHEMBL5442379",
  "about": "“ASAP - SARS-CoV-2 nsp3 macrodomain single point” (2024)",
  "target": "Replicase polyprotein 1ab (Severe acute respiratory syndrome coronavirus 2) (UniProt P0DTD1)",
  "description": "Functional biochemical assay to identify treatments for viral infectious disease that targets SARS-COV-2 nsp3 macrodomain, whereby the mechanism of action displaces an ADP-Ribose modified peptide from the binding site. Utilizing a time-resolved fluorescence method to measure binding by reading the emitted fluorescence intensity in two wavelengths.",
  "data": [
    {"smiles": "CC(C)[C@@H](Nc1ncnc2n[nH]cc12)c1cnn(C)c1", "values": [
      {"measurement": "inhibition", "setting": "Concentration 50.0 uM, Number of replicates 2.0, Standard deviation 1.634 %", "value": 63.5, "unit": "%"}
    ]},
    {"smiles": "O=C(CCN(Cc1cccc(Cl)c1)C(=O)c1ccc(F)cn1)N1CCNCC1", "values": [
      {"measurement": "inhibition", "setting": "Concentration 49.75 uM, Number of replicates 2.0, Standard deviation 0.987 %", "value": 6.76, "unit": "%"},
      {"measurement": "inhibition", "setting": "Concentration 99.5 uM, Number of replicates 2.0, Standard deviation 1.391 %", "value": 6.74, "unit": "%"}
    ]},
    {"smiles": "CC(C)[C@H]1CN(c2ncnc3[nH]ccc23)[C@H]1C(C)C", "values": [
      {"measurement": "inhibition", "setting": "Concentration 49.75 uM, Number of replicates 2.0, Standard deviation 1.709 %", "value": 0.348, "unit": "%"},
      {"measurement": "inhibition", "setting": "Concentration 99.5 uM, Number of replicates 2.0, Standard deviation 1.351 %", "value": -2.2, "unit": "%"}
    ]},
    {"smiles": "O=C(Nc1ccc(O)cc1)Nc1ccc(Oc2ccccc2)cc1", "values": [
      {"measurement": "inhibition", "setting": "Concentration 50.0 uM, Number of replicates 2.0, Standard deviation 2.274 %", "value": -3.31, "unit": "%"}
    ]}
  ]
}
